Test results from patent US20260232682A1, “GSPT1 DEGRADER COMPOUNDS” (Captor Therapeutics S.A., priority 2023, published 2026).

Assays:
[1] = target: T1, [IKZF2 ZF2]-[compound]-[CRBN/DDB1] ternary complex (Homo sapiens, UniProt Q96SW2+Q9UKS7); test: AlphaLISA assay for off-target recruitment detection, IKZF2 ZF2; format: binding; conditions: 1 μM compound; normalized to Helios modulator; read-out: Normalized ternary complex response, IKZF2 ZF2
T1 construct: IKZF2 ZF2
Protocol: (§1) The ability of the molecular glue compounds of the invention to mediate the proximity of CRBN with its known neo-substrates (shown in Table 3) was assessed using AlphaLISA to detect the formation of a [neo-substrate]-[compound of formula (I)]-[CRBN/DDB1] ternary complex.
(§2) Two types of protein solution were prepared: • neo-substrate, 40 μg/ml AlphaScreen Donor Beads (Table 3) in PBS (10 mM phosphate buffer, 137 mM NaCL, 2.7 mM KCl, pH 7.4) buffer supplemented with Tween-20 (Table 3) and 1 mM DTT, • 200 nM 6×His-CRBN/DDB1, 40 μg/ml AlphaLISA Anti-6×His Acceptor beads in PBS buffer with Tween-20 (Table 3) and 1 mM DTT.
(§3) The prepared solutions were incubated at room temperature for 30 min and then the solution containing the donor beads was mixed with the solution containing the acceptor beads.
(§4) The tested compounds were dispensed onto a white 384-well AlphaPlate 384 SW. DMSO was backfilled to all wells, resulting in a final DMSO content of 2%. Wells containing only DMSO served as background. Next, 10 μl of solution with donor and acceptor beads was added to the wells.
(§5) The plate was sealed with transparent film and shaken using a VibroTurbulator for 60 sec at room temperature, level 3. The plate was then spun down shortly (10 sec, 1000 rcf, room temperature) and incubated at 25° C. for 30 min.
(§6) The read-out was performed with PerkinElmer Enspire Multimode Plate Reader (method for AlphaLISA 384-well low volume, Filterset: λexc=680 nm, λem=615 nm).
(§7) The results were analyzed as follows: • 1) an average of luminescence for background signal was calculated and used as a negative control; • 2) an average of the maximum measured luminescence for reference compound (Table 3) was calculated and used as an internal positive control; • 3) raw luminescence values were normalized against positive and negative controls; • 4) Normalized responses to reference molecular glue were determined.

[2] = target: T2, [GSPT1]-[compound of formula (I)]-[CRBN/DDB1] complex (Homo sapiens, UniProt P15170+Q96SW2); test: HTRF ternary complex assay (GSPT1); format: binding; conditions: read-out: HTRF ternary complex Average pEC50 by molecule (converted)
T2 sequence (P15170 whole entry): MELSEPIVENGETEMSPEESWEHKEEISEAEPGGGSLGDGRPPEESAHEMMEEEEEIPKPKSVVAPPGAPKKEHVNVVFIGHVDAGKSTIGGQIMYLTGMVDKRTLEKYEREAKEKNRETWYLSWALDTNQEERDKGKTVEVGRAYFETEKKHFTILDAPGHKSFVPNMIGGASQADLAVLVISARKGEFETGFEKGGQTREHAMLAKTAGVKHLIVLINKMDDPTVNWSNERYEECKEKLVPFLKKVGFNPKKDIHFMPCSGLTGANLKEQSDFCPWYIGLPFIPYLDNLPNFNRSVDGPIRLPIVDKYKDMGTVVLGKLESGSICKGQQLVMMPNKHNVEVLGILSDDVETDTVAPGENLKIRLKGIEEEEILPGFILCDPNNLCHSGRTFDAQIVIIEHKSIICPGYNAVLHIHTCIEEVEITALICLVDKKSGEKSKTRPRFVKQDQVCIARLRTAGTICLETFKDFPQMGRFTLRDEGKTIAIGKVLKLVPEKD
T2 sequence (Q96SW2 whole entry): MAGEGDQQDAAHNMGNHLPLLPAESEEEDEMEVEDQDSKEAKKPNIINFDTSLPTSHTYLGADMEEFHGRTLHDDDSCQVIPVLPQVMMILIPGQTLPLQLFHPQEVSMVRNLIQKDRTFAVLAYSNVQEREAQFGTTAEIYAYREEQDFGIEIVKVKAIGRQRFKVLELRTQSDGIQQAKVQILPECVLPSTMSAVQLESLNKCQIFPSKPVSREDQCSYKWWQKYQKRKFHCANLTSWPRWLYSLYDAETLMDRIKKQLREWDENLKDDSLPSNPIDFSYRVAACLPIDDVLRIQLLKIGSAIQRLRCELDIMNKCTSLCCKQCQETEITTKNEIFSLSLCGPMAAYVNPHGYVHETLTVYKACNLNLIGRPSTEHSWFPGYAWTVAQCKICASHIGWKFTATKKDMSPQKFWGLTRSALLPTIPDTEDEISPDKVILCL
T2 sequence (Q16531 whole entry partner): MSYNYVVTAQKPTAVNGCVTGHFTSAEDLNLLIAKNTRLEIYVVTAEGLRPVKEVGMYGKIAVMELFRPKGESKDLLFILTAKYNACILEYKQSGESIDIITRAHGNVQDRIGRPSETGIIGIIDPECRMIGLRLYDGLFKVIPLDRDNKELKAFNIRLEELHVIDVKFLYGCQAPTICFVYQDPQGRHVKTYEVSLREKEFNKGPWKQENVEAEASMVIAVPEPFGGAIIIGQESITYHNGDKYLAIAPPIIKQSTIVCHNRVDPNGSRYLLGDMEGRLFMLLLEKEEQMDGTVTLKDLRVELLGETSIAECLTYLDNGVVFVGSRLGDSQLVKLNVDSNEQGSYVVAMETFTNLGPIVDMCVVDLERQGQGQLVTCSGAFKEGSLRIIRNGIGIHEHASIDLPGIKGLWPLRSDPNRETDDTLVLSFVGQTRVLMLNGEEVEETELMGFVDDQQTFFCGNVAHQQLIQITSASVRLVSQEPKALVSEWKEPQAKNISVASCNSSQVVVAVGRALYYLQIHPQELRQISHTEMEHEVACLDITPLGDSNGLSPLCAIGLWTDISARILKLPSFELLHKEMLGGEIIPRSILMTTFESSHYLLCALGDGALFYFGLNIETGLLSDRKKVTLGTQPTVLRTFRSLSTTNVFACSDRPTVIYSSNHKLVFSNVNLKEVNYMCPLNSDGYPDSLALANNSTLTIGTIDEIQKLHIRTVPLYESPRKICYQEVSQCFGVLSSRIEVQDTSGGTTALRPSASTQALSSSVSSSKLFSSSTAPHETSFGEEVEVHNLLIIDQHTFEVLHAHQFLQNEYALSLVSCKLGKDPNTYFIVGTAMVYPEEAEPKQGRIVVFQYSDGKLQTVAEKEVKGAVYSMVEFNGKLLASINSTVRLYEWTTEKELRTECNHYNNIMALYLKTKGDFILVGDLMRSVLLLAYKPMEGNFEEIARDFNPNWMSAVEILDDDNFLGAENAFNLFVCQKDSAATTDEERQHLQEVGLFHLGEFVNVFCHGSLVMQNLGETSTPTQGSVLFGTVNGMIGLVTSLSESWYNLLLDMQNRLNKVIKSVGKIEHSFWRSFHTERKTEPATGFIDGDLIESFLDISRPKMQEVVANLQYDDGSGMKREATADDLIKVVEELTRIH
Protocol: The effect of the molecular glue compounds of the invention on the formation of a ternary complex composed of [GSPT1]-[compound of formula (I)]-[CRBN/DDB1] was investigated.
Mix solution of proteins and reagents was prepared: • 48 nM GSPT1, 52.8 nM 6×His-CRBN/DDB1, 3 nM of Streptavidin-Eu cryptate ([…]) and 6.67 nM of Anti-6×his-d2 ([…]) was prepared in PPI Europium detection buffer (purchased from Cisbio) with 1 mM DTT.
The tested compounds in dose-response were dispensed onto a white 384-well low volume plate (Greiner, 784075). DMSO was backfilled to all wells, resulting in a final DMSO content of 0.5%. Wells containing only DMSO served as background.
The plate was sealed with transparent film and shaken using a VibroTurbulator for 60 sec at level 3.
The plate was then spun down shortly (10 sec, 1000 rcf) and incubated at 25° C. for 180 min.
The read-out was performed with plate reader (Pherastar, BMG Labtech) in time resolved fluorescence mode. Filter settings: TR 337 665 620.
The results were analyzed as follows: • 1) an average of fluorescence for background signal was calculated and used as a negative control; • 2) raw fluorescence values for tested compounds were normalized against negative controls; • 3) saturation curve was fitted to specific binding with Hill slope model; • 4) EC50 and pEC50 values were determined.

[3] = target: T3, [IKZF1 ZF2]-[compound]-[CRBN/DDB1] ternary complex (Homo sapiens, UniProt Q13422+Q96SW2); test: AlphaLISA assay for off-target recruitment detection, IKZF1 ZF2; format: binding; conditions: 1 μM compound; normalized to Lenalidomide; read-out: Normalized ternary complex response, IKZF1 ZF2
T3 construct: IKZF1 ZF2
T3 sequence (Q13422 145-167 limits assumed): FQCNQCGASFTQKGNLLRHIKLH
T3 sequence (Q96SW2 whole entry): as the sequence (Q96SW2 whole entry) above
T3 sequence (Q16531 whole entry partner): as the sequence (Q16531 whole entry partner) above
Protocol: as §1, §2, §3, §4, §5, §6, §7

[4] = target: T2, [GSPT1]-[compound of formula (I)]-[CRBN/DDB1] complex; test: AlphaLISA ternary complex formation assay (GSPT1); format: binding; conditions: 0.5 h; 1 μM compound; normalized to reference compound CC-885; read-out: Normalized AlphaLISA ternary complex average signal at 1 μM molecule
Protocol: The effect of the molecular glue compounds of the invention on the formation of a ternary complex composed of [GSPT1]-[compound of formula (I)]-[CRBN/DDB1] was investigated with two methods: AlphaLISA dose response assay or HTRF ternary complex assay.
Two types of protein solution were prepared: • 200 nM biotinylated GSPT1 (Table 3), 40 μg/ml AlphaScreen Streptavidin-coated Donor Beads in HBS (10 mM HEPES, 150 mM NaCL, pH 7.4) buffer with 0.1% Tween-20 and 1 mM DTT, • 200 nM 6×His-CRBN/DDB1, 40 μg/ml AlphaLISA Anti-6×His Acceptor beads in HBS buffer with 0.1% Tween-20 and 1 mM DTT.
as §3, §4, §5, §6
as §7, with “2)” for “2) an”, “(structure shown in Table 3 below)” for “(Table 3)”, “positive control” for “reference molecular glue”

[5] = target: [CK1α]-[compound]-[CRBN/DDB1] ternary complex (Homo sapiens, UniProt P48729+Q96SW2); test: AlphaLISA assay for off-target recruitment detection, CK1α; format: binding; conditions: 1 μM compound; normalized to FPFT-2216; read-out: Normalized ternary complex response, CK1α
Sequence of [CK1α]-[compound]-[CRBN/DDB1] ternary complex (P48729 whole entry): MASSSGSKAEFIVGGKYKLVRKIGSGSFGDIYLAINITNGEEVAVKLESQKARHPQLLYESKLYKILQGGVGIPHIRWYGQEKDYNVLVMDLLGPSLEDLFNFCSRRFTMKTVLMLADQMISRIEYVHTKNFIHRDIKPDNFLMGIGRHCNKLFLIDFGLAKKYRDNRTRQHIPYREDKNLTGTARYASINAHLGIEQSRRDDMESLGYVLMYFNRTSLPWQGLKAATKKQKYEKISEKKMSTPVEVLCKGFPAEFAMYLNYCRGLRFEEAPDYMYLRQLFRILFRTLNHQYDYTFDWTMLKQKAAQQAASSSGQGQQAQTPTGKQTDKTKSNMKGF
Sequence of [CK1α]-[compound]-[CRBN/DDB1] ternary complex (Q96SW2 whole entry): as the sequence (Q96SW2 whole entry) above
Sequence of [CK1α]-[compound]-[CRBN/DDB1] ternary complex (Q16531 whole entry partner): as the sequence (Q16531 whole entry partner) above
Protocol: as §1, §2, §3, §4, §5, §6, §7

GSPT1-HiBiT HEK293 cells = test: Cell Viability-CTG assay accompanying the Nano-Glo HiBiT assay; format: cell-based; conditions: 6 hours treatment, viability of GSPT1-HiBiT HEK293 cells
Protocol: In parallel, the Cell Viability-CTG assay was performed to ensure that the potential decrease of the luminescent signal observed in the Nano-Glo HiBiT assay is a result of protein degradation and not a result of decreasing cell viability. For CTG assay accompanying the Nano-Glo HiBiT assay, cells were cultured, seeded and treated as described above. After 6 hours of incubation (37° C., 5% CO2), plates were removed from the incubator and let to equilibrate to RT. Luminescent signal detection was conducted using the CellTiter-Glo Lumiescent Cell Viability Assay (Promega, cat. nr G7573). 10 μL of the Cell Titer Glo reagent was added per well, plates were shaken to facilitate lysis (460 rpm, 4 min, RT) and incubated in the dark for the following 8 min. Luminescence was read using the CLARIOstar multimode plate reader (BMG LABTECH). The raw data (the relative luminescence unit values, RLU) were uploaded under the relevant protocol and analysed in CDDVault data management platform, in a manner similar to the description above. The Mean Minimum values were calculated in CDDVault using non-linear regression and appropriate equations.

T1 sequence (Q9UKS7 140-162 limits assumed): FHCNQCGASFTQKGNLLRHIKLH
T1 sequence (Q96SW2 whole entry): as the sequence (Q96SW2 whole entry) above
T1 sequence (Q16531 whole entry partner): as the sequence (Q16531 whole entry partner) above

| activation at 1 µM [1] [%] | EC50 [2] [µM] | activation at 1 µM [3] [%] | activation at 1 µM [4] [%] | activation at 1 µM [5] [%] | SMILES | CTG assay Mean minimum (GSPT1-HiBiT HEK293 cells) |
| --- | --- | --- | --- | --- | --- | --- |
| < 10 | > 3.16 | < 10 | 10 to 50 | < 10 | Cc1ccc(NC(=S)NCc2ccc3cc(C4CCC(=O)NC4=O)c(C)nc3c2)cc1Cl (stereo not shown) [Compound 2, 1-(3-chloro-4-methylphenyl)-3-((3-(2,6-dioxopiperidin-3-yl)-2-methylquinolin-7-yl)methyl)thiourea] |  |
| < 10 | 0.316 to 3.16 | < 10 | > 50 | < 10 | Cc1ccc(NC(=O)OCc2ccc3cc(C4CCC(=O)NC4=O)c(C)nc3c2)cc1Cl (stereo not shown) [Compound 4, (3-(2,6-dioxopiperidin-3-yl)-2-methylquinolin-7-yl)methyl (3-chloro-4-methylphenyl)carbamate] | ++++ (++++≥75% of viability of the HiBiT-GSPT1 HEK293 cells) |
| 10 to 25 | > 3.16 | 25 to 50 | > 50 | < 10 | Cc1ccc(NC(=O)OCc2ccc3nc(C)c(C4CCC(=O)NC4=O)cc3c2)cc1Cl (stereo not shown) [Compound 5, (3-(2,6-dioxopiperidin-3-yl)-2-methylquinolin-6-yl)methyl (3-chloro-4-methylphenyl)carbamate] |  |
| < 10 | 0.316 to 3.16 | < 10 | 10 to 50 | < 10 | Cc1nc2cc(COC(=O)Nc3cc(OC(F)(F)F)ccc3F)ccc2cc1C1CCC(=O)NC1=O (stereo not shown) [Compound 6, (3-(2,6-dioxopiperidin-3-yl)-2-methylquinolin-7-yl)methyl (2-fluoro-5-(trifluoromethoxy)phenyl)carbamate] | ++++ (++++≥75% of viability of the HiBiT-GSPT1 HEK293 cells) |
| < 10 | 0.316 to 3.16 | < 10 | > 50 | < 10 | Cc1nc2cc(COC(=O)Nc3ccc(C(C)(C)C)cc3)ccc2cc1C1CCC(=O)NC1=O (stereo not shown) [Compound 8, (3-(2,6-dioxopiperidin-3-yl)-2-methylquinolin-7-yl)methyl (4-(tert-butyl)phenyl)carbamate] | ++++ (++++≥75% of viability of the HiBiT-GSPT1 HEK293 cells) |
| < 10 | 0.316 to 3.16 | < 10 | 10 to 50 | < 10 | Cc1nc2cc(COC(=O)Nc3cccc(C(C)(C)C)c3)ccc2cc1C1CCC(=O)NC1=O (stereo not shown) [Compound 9, (3-(2,6-dioxopiperidin-3-yl)-2-methylquinolin-7-yl)methyl (3-(tert-butyl)phenyl)carbamate] | ++++ (++++≥75% of viability of the HiBiT-GSPT1 HEK293 cells) |
| < 10 | < 0.316 | < 10 | 10 to 50 | < 10 | Cc1nc2cc(COC(=O)Nc3ccc(C(C)(C)C)c(Cl)c3)ccc2cc1C1CCC(=O)NC1=O (stereo not shown) [Compound 10, (3-(2,6-dioxopiperidin-3-yl)-2-methylquinolin-7-yl)methyl (4-(tert-butyl)-3-chlorophenyl)carbamate] | ++++ (++++≥75% of viability of the HiBiT-GSPT1 HEK293 cells) |
| < 10 | 0.316 to 3.16 | < 10 | > 50 | < 10 | COc1ccc(NC(=O)OCc2ccc3cc(C4CCC(=O)NC4=O)c(C)nc3c2)cc1Cl (stereo not shown) [Compound 11, (3-(2,6-dioxopiperidin-3-yl)-2-methylquinolin-7-yl)methyl (3-chloro-4-methoxyphenyl)carbamate] | ++++ (++++≥75% of viability of the HiBiT-GSPT1 HEK293 cells) |
| < 10 | 0.316 to 3.16 | < 10 | 10 to 50 | < 10 | Cc1nc2cc(COC(=O)Nc3ccc(Cl)c(Cl)c3)ccc2cc1C1CCC(=O)NC1=O (stereo not shown) [Compound 12, (3-(2,6-dioxopiperidin-3-yl)-2-methylquinolin-7-yl)methyl (3,4-dichlorophenyl)carbamate] | ++++ (++++≥75% of viability of the HiBiT-GSPT1 HEK293 cells) |
| < 10 | 0.316 to 3.16 | < 10 | 10 to 50 | < 10 | Cc1nc2cc(COC(=O)Nc3ccc4c(c3)OCO4)ccc2cc1C1CCC(=O)NC1=O (stereo not shown) [Compound 14, (3-(2,6-dioxopiperidin-3-yl)-2-methylquinolin-7-yl)methyl benzo[d][1,3]dioxol-5-ylcarbamate] | ++++ (++++≥75% of viability of the HiBiT-GSPT1 HEK293 cells) |
| < 10 | 0.316 to 3.16 | < 10 | 10 to 50 | < 10 | Cc1nc2cc(COC(=O)Nc3ccc4c(c3)OCCO4)ccc2cc1C1CCC(=O)NC1=O (stereo not shown) [Compound 15, (3-(2,6-dioxopiperidin-3-yl)-2-methylquinolin-7-yl)methyl (2,3-dihydrobenzo[b][1,4]dioxin-6-yl)carbamate] | ++++ (++++≥75% of viability of the HiBiT-GSPT1 HEK293 cells) |
